Measured values reported in ChEMBL document CHEMBL4359901, “Cyclic enaminone as new chemotype for selective cyclooxygenase-2 inhibitory, anti-inflammatory, and analgesic activities” (Eur J Med Chem, 2019).
One block for each molecule: values may come before it.

How the values were obtained:
[1] = biological target: Prostaglandin G/H synthase 1 (Ovis aries) (UniProt P05979); test: Inhibition of ovine COX1 assessed as reduction in PGF2alpha at 10 uM incubated for 2 mins using arachidonic acid as substrate by ELISA relative to control
[2] = biological target: Prostaglandin G/H synthase 2 (Homo sapiens) (UniProt P35354); test: Inhibition of recombinant human COX2 assessed as reduction in PGF2alpha at 10 uM incubated for 2 mins using arachidonic acid as substrate by ELISA relative to control
Rattus norvegicus [3] = test: Antiinflammatory activity in Wistar albino rat assessed as reduction in carrageenan-induced paw edema at 25 mg/kg, ip measured after 1 hr by plethysmometric method (reference value: 1.43 +/- 0.19 ml); type: functional
Rattus norvegicus [4] = test: Antiinflammatory activity in Wistar albino rat assessed as reduction in carrageenan-induced paw edema at 25 mg/kg, ip measured after 2 hrs by plethysmometric method (reference value: 1.58 +/- 0.21 ml); type: functional
Rattus norvegicus [5] = test: Antiinflammatory activity in Wistar albino rat assessed as reduction in carrageenan-induced paw edema at 25 mg/kg, ip measured after 3 hrs by plethysmometric method (reference value: 1.75 +/- 0.33 ml); type: functional
Rattus norvegicus [6] = test: Antiinflammatory activity in Wistar albino rat assessed as reduction in carrageenan-induced paw volume at 12.5 mg/kg, ip measured after 1 hr by plethysmometric method (reference value: 1.43 +/- 0.19 ml); type: functional
Rattus norvegicus [7] = test: Antiinflammatory activity in Wistar albino rat assessed as reduction in carrageenan-induced paw volume at 12.5 mg/kg, ip measured after 2 hrs by plethysmometric method (reference value: 1.58 +/- 0.21 ml); type: functional
Rattus norvegicus [8] = test: Antiinflammatory activity in Wistar albino rat assessed as reduction in carrageenan-induced paw volume at 12.5 mg/kg, ip measured after 3 hrs by plethysmometric method (reference value: 1.75 +/- 0.33 ml); type: functional
Rattus norvegicus [9] = test: Analgesic activity in Wistar albino rat assessed as reaction time at 25 mg/kg, ip measured after 30 mins for 15 secs by hot plate method (reference value: 4.21 +/- 0.41 sec); type: functional
Rattus norvegicus [10] = test: Analgesic activity in Wistar albino rat assessed as reaction time at 25 mg/kg, ip measured after 60 mins for 15 secs by hot plate method (reference value: 4.67 +/- 0.52 sec); type: functional
Rattus norvegicus [11] = test: Analgesic activity in Wistar albino rat assessed as reaction time at 25 mg/kg, ip measured after 120 mins for 15 secs by hot plate method (reference value: 4.32 +/- 0.52 sec); type: functional
Rattus norvegicus [12] = test: Analgesic activity in Wistar albino rat assessed as reaction time at 25 mg/kg, ip measured after 180 mins for 15 secs by hot plate method (reference value: 3.87 +/- 0.38 sec); type: functional
Rattus norvegicus [13] = test: Analgesic activity in Wistar albino rat assessed as reaction time at 12.5 mg/kg, ip measured after 30 mins for 15 secs by hot plate method (reference value: 4.21 +/- 0.41 sec); type: functional
Rattus norvegicus [14] = test: Analgesic activity in Wistar albino rat assessed as reaction time at 12.5 mg/kg, ip measured after 60 mins for 15 secs by hot plate method (reference value: 4.67 +/- 0.52 sec); type: functional
Rattus norvegicus [15] = test: Analgesic activity in Wistar albino rat assessed as reaction time at 12.5 mg/kg, ip measured after 120 mins for 15 secs by hot plate method (reference value: 4.32 +/- 0.52 sec); type: functional
Rattus norvegicus [16] = test: Analgesic activity in Wistar albino rat assessed as reaction time at 12.5 mg/kg, ip measured after 180 mins for 15 secs by hot plate method (reference value: 3.87 +/- 0.38 sec); type: functional
Rattus norvegicus [17] = test: Antiinflammatory activity in Sprague-Dawley rat model of carrageenan-induced thermal hyperalgesia assessed as paw withdrawal latency time at 50 mg/kg, po administered 1 hr prior to carrageenan challenge and measured after 1 hr by planter test (reference value: 8.88 +/- 0.52 sec); type: functional
Rattus norvegicus [18] = test: Antiinflammatory activity in Sprague-Dawley rat model of carrageenan-induced thermal hyperalgesia assessed as paw withdrawal latency time at 50 mg/kg, po administered 1 hr prior to carrageenan challenge and measured after 2 hrs by planter test (reference value: 6.17 +/- 0.58 sec); type: functional
Rattus norvegicus [19] = test: Antiinflammatory activity in Sprague-Dawley rat model of carrageenan-induced thermal hyperalgesia assessed as paw withdrawal latency time at 50 mg/kg, po administered 1 hr prior to carrageenan challenge and measured after 3 hrs by planter test (reference value: 4.13 +/- 0.45 sec); type: functional
Rattus norvegicus [20] = test: Antiinflammatory activity in Sprague-Dawley rat model of carrageenan-induced thermal hyperalgesia assessed as paw withdrawal latency time at 50 mg/kg, po administered 1 hr prior to carrageenan challenge and measured after 4 hrs by planter test (reference value: 5.47 +/- 0.84 sec); type: functional
Rattus norvegicus [21] = test: Antiinflammatory activity in Sprague-Dawley rat model of carrageenan-induced thermal hyperalgesia assessed as paw withdrawal latency time at 50 mg/kg, po administered 1 hr prior to carrageenan challenge and measured after 5 hrs by planter test (reference value: 7.5 +/- 0.74 sec); type: functional
Rattus norvegicus [22] = test: Antiinflammatory activity in Sprague-Dawley rat model of carrageenan-induced thermal hyperalgesia assessed as paw withdrawal latency pressure at 50 mg/kg, po administered 1 hr prior to carrageenan challenge and measured after 1 hr by Von-frey test (reference value: 159.88 +/- 4.66 g); type: functional
Rattus norvegicus [23] = test: Antiinflammatory activity in Sprague-Dawley rat model of carrageenan-induced thermal hyperalgesia assessed as paw withdrawal latency pressure at 50 mg/kg, po administered 1 hr prior to carrageenan challenge and measured after 2 hrs by Von-frey test (reference value: 146.47 +/- 5.12 g); type: functional
Rattus norvegicus [24] = test: Antiinflammatory activity in Sprague-Dawley rat model of carrageenan-induced thermal hyperalgesia assessed as paw withdrawal latency pressure at 50 mg/kg, po administered 1 hr prior to carrageenan challenge and measured after 3 hrs by Von-frey test (reference value: 31.65 +/- 3.33 g); type: functional
Rattus norvegicus [25] = test: Antiinflammatory activity in Sprague-Dawley rat model of carrageenan-induced thermal hyperalgesia assessed as paw withdrawal latency pressure at 50 mg/kg, po administered 1 hr prior to carrageenan challenge and measured after 3 hrs by Von-frey test (reference value: 146.61 +/- 1.58 g); type: functional
Rattus norvegicus [26] = test: Antiinflammatory activity in Sprague-Dawley rat model of carrageenan-induced thermal hyperalgesia assessed as paw withdrawal latency pressure at 50 mg/kg, po administered 1 hr prior to carrageenan challenge and measured after 5 hrs by Von-frey test (reference value: 169.58 +/- 4.26 g); type: functional
Rattus norvegicus [27] = test: Antiinflammatory activity in Sprague-Dawley rat model of carrageenan-induced thermal hyperalgesia assessed as paw withdrawal latency pressure at 50 mg/kg, po administered 1 hr prior to carrageenan challenge and measured after 2 hrs by Randall-Selitto test (reference value: 231.13 +/- 3.15 g); type: functional
Rattus norvegicus [28] = test: Antiinflammatory activity in Sprague-Dawley rat model of carrageenan-induced thermal hyperalgesia assessed as paw withdrawal latency pressure at 50 mg/kg, po administered 1 hr prior to carrageenan challenge and measured after 3 hrs by Randall-Selitto test (reference value: 176.84 +/- 8.1 g); type: functional
Rattus norvegicus [29] = test: Antiinflammatory activity in Sprague-Dawley rat model of carrageenan-induced thermal hyperalgesia assessed as paw withdrawal latency pressure at 50 mg/kg, po administered 1 hr prior to carrageenan challenge and measured after 3 hrs by Randall-Selitto test (reference value: […] g); type: functional
Rattus norvegicus [30] = test: Antiinflammatory activity in Sprague-Dawley rat model of carrageenan-induced thermal hyperalgesia assessed as paw withdrawal latency pressure at 50 mg/kg, po administered 1 hr prior to carrageenan challenge and measured after 1 hr by Randall-Selitto test (reference value: 246.55 +/- 1.05 g); type: functional
[31] = Ulcerogenicity in Sprague-Dawley rat assessed as formation of ulcer at 20 mg/kg, po after 1 hr by microscopic analysis; type: toxicity, organism-based; conditions: in vivo
[32] = Selectivity index, ratio of IC50 for inhibition of ovine COX1 to IC50 for inhibition of recombinant human COX2
[33] = Antioxidant activity assessed as DPPH radical scavenging activity at 10 uM/ml incubated for 20 mins by spectrophotometric method relative to control; type: functional
[34] = Antioxidant activity assessed as DPPH radical scavenging activity at 20 uM/ml incubated for 20 mins by spectrophotometric method relative to control; type: functional
[35] = Antioxidant activity assessed as DPPH radical scavenging activity at 40 uM/ml incubated for 20 mins by spectrophotometric method relative to control; type: functional
[36] = Antioxidant activity assessed as DPPH radical scavenging activity at 60 uM/ml incubated for 20 mins by spectrophotometric method relative to control; type: functional
[37] = Antioxidant activity assessed as DPPH radical scavenging activity at 80 uM/ml incubated for 20 mins by spectrophotometric method relative to control; type: functional
[38] = Antioxidant activity assessed as DPPH radical scavenging activity at 100 uM/ml incubated for 20 mins by spectrophotometric method relative to control; type: functional
[39] = Antioxidant activity assessed as DPPH radical scavenging activity incubated for 20 mins by spectrophotometric method; type: functional

inhibition [1]: 23.7% | inhibition [2]: 33.5%
Compound: O=C1C=C(Nc2ccc(Cl)cc2)CC1

Compound: Cc1ccc(-c2cc(C(F)(F)F)nn2-c2ccc(S(N)(=O)=O)cc2)cc1 [CELECOXIB]
Activity (Rattus norvegicus [3]): 1.3 mL | Activity (Rattus norvegicus [4]): 1.23 mL | Activity (Rattus norvegicus [5]): 1.16 mL | Activity (Rattus norvegicus [6]): 1.34 mL | Activity (Rattus norvegicus [7]): 1.38 mL | Activity (Rattus norvegicus [8]): 1.36 mL | Time (Rattus norvegicus [9]): 6.34 s | Time (Rattus norvegicus [10]): 8.93 s | Time (Rattus norvegicus [11]): 12.08 s | Time (Rattus norvegicus [12]): 10.87 s | Time (Rattus norvegicus [13]): 5.75 s | Time (Rattus norvegicus [14]): 8.93 s | Time (Rattus norvegicus [15]): 10.98 s | Time (Rattus norvegicus [16]): 9.92 s | Time (Rattus norvegicus [17]): 11.54 s | Time (Rattus norvegicus [18]): 10.98 s | Time (Rattus norvegicus [19]): 9.48 s | Time (Rattus norvegicus [20]): 8.36 s | Time (Rattus norvegicus [21]): 9.22 s | Activity (Rattus norvegicus [22]): 176.45 g | Activity (Rattus norvegicus [23]): 176.63 g | Activity (Rattus norvegicus [24]): 176.87 g | Activity (Rattus norvegicus [25]): 176.87 g | Activity (Rattus norvegicus [26]): 180.82 g | Activity (Rattus norvegicus [27]): 273.46 g | Activity (Rattus norvegicus [28]): 270.66 g | Activity (Rattus norvegicus [29]): 269.55 g | Activity (Rattus norvegicus [30]): 270.89 g

inhibition [1]: 5.14% | inhibition [2]: 34%
Compound: O=C1C=C(Nc2nc3ccccc3s2)CCC1

Compound: COc1ccc2c(c1)c(CC(=O)O)c(C)n2C(=O)c1ccc(Cl)cc1 [INDOMETHACIN]
Activity [31]: Toxic

Compound: O=C1C=C(Nc2ccc(Cl)cc2)CCC1
Ratio IC50 [32]: 74.1 | Activity (Rattus norvegicus [3]): 1.29 mL | Activity (Rattus norvegicus [4]): 1.24 mL | Activity (Rattus norvegicus [5]): 1.19 mL | Activity (Rattus norvegicus [6]): 1.23 mL | Activity (Rattus norvegicus [7]): 1.22 mL | Activity (Rattus norvegicus [8]): 1.23 mL | Time (Rattus norvegicus [9]): 5.48 s | Time (Rattus norvegicus [10]): 7.72 s | Time (Rattus norvegicus [11]): 8.83 s | Time (Rattus norvegicus [12]): 8.2 s | Time (Rattus norvegicus [13]): 5.34 s | Time (Rattus norvegicus [14]): 7.09 s | Time (Rattus norvegicus [15]): 7.16 s | Time (Rattus norvegicus [16]): 7.24 s | Activity [33]: 12.7% | Activity [34]: 24% | Activity [35]: 33.7% | Activity [36]: 46.7% | Activity [37]: 61.3% | Activity [38]: 78.2% | IC50 [39]: 71.2 µM | inhibition [1]: 12.9% | inhibition [2]: 88.6%

Compound: CC(C)(C)OC(=O)N(C1=CC(=O)CCC1)c1ccc(Cl)cc1
Ratio IC50 [32]: 19.4 | Activity (Rattus norvegicus [3]): 1.3 mL | Activity (Rattus norvegicus [4]): 1.24 mL | Activity (Rattus norvegicus [5]): 1.19 mL | Activity (Rattus norvegicus [6]): 1.24 mL | Activity (Rattus norvegicus [7]): 1.28 mL | Activity (Rattus norvegicus [8]): 1.18 mL | Time (Rattus norvegicus [9]): 6.53 s | Time (Rattus norvegicus [10]): 6.87 s | Time (Rattus norvegicus [11]): 9.98 s | Time (Rattus norvegicus [12]): 7.85 s | Time (Rattus norvegicus [13]): 5.59 s | Time (Rattus norvegicus [14]): 6.29 s | Time (Rattus norvegicus [15]): 7.99 s | Time (Rattus norvegicus [16]): 7.95 s | Activity [33]: 23.1% | Activity [34]: 36.5% | Activity [35]: 49.6% | Activity [36]: 63% | Activity [37]: 77.2% | Activity [38]: 89.1% | IC50 [39]: 42.6 µM | inhibition [1]: 30.5% | inhibition [2]: 73.5%

inhibition [1]: 19.7% | inhibition [2]: 41.9%
Compound: O=C1C=C(Nc2ccccc2)CCC1

inhibition [1]: 16.4% | inhibition [2]: 42.6%
Compound: CC1(C)CC(=O)C=C(Nc2ccc(Cl)cc2)C1

inhibition [1]: 12.5% | inhibition [2]: 45.6%
Compound: O=C1C=C(N2CCCC2)CCC1

inhibition [1]: 11.3% | inhibition [2]: 43.2%
Compound: O=C1C=C(NN2CCCCC2)CCC1

inhibition [1]: 11.2% | inhibition [2]: 34.2%
Compound: Cc1ccc(NC2=CC(=O)CCC2)cc1

IC50 [39]: < 20 µM
Compound: O=C1O[C@H]([C@@H](O)CO)C(O)=C1O [ASCORBIC ACID]
Activity [33]: 27.1% | Activity [34]: 50.8% | Activity [35]: 74.7% | Activity [36]: 91.1% | Activity [37]: 100%

inhibition [1]: 27.2% | inhibition [2]: 48.4%
Compound: O=C1C=C(NCc2ccco2)CCC1
